{"source": "patent US9096492B2", "about": "“Hydrated N-fullerene amino acids, method for producing the latter, and pharmaceutical compositions on the basis thereof” (priority 2011, dated 2015)", "key": {"[1]": {"tested_on": "A/Puerto Rico/8/34 (H1N1) influenza virus", "assay_type": "in vivo, mice", "details": "for Size of chronic post-influenza pneumonia sites (% of the total surface area of the lungs): the lower of the virus doses used, day 15"}, "[2]": {"tested_on": "A/Vladivostok/2/09 (H1N1) influenza virus", "assay_type": "in vivo, mice", "details": "for Size of chronic post-influenza pneumonia sites (% of the total surface area of the lungs): the lower of the virus doses used, day 15"}, "[3]": {"details": "Tamiflu 20 mg/kg, Summary dose, n=28"}, "[4]": {"details": "Tamiflu 20 mg/kg, Summary dose, n=19"}}, "note": "Like-named read-outs stand apart in the source and are kept apart here.", "data": [{"compound": "CCOC(=O)C1=C[C@@H](OC(CC)CC)[C@H](NC(C)=O)[C@@H](N)C1.O=P(O)(O)O", "note": "[Tamiflu, ethyl(3R,4R,5S)-4-acetamido-5-amino-3-(1-ethylpropoxy)-1-cyclohexene-1-carboxylate phosphate, reference compound]", "values": [{"measurement": "reduction of the death rate compared to the control", "setting": "[1]; Tamiflu", "value": "approximately 70%"}, {"measurement": "Average lifetime (LD)", "setting": "[1]; [3]", "value": 13.9, "unit": "days"}, {"measurement": "Increase in LD", "setting": "[1]; [3]", "value": 3.6, "unit": "days"}, {"measurement": "Index of protection, %", "setting": "[1]; [3]", "value": 66.7, "unit": "%"}, {"measurement": "Mortality rate, %", "setting": "[1]; [3]", "value": 21.4, "unit": "%"}, {"measurement": "Number of survivors", "setting": "[1]; [3]", "value": 22}, {"measurement": "Average lifetime (LD)", "setting": "[1]; Tamiflu 20 mg/kg, […], n=13", "value": 14.4, "unit": "days"}, {"measurement": "Increase in LD", "setting": "[1]; Tamiflu 20 mg/kg, […], n=13", "value": 2.1, "unit": "days"}, {"measurement": "Index of protection, %", "setting": "[1]; Tamiflu 20 mg/kg, […], n=13", "value": 67.0, "unit": "%"}, {"measurement": "Mortality rate, %", "setting": "[1]; Tamiflu 20 mg/kg, […], n=13", "value": 15.4, "unit": "%"}, {"measurement": "Number of survivors", "setting": "[1]; Tamiflu 20 mg/kg, […], n=13", "value": 11}, {"measurement": "Average lifetime (LD)", "setting": "[1]; Tamiflu 20 mg/kg, […], n=15", "value": 13.5, "unit": "days"}, {"measurement": "Increase in LD", "setting": "[1]; Tamiflu 20 mg/kg, […], n=15", "value": 5.5, "unit": "days"}, {"measurement": "Index of protection, %", "setting": "[1]; Tamiflu 20 mg/kg, […], n=15", "value": 68.5, "unit": "%"}, {"measurement": "Mortality rate, %", "setting": "[1]; Tamiflu 20 mg/kg, […], n=15", "value": 26.7, "unit": "%"}, {"measurement": "Number of survivors", "setting": "[1]; Tamiflu 20 mg/kg, […], n=15", "value": 11}, {"measurement": "Size of chronic post-influenza pneumonia sites (% of the total surface area of the lungs)", "setting": "[1]; Tamiflu 20 mg/kg", "value": "15 ± 4; %"}, {"measurement": "activity against the strain", "setting": "[2]; Tamiflu 20 mg/kg", "value": "inactive"}, {"measurement": "Average lifetime (LD)", "setting": "[2]; [4]", "value": 12.5, "unit": "days"}, {"measurement": "Increase in LD", "setting": "[2]; [4]", "value": 0.2, "unit": "days"}, {"measurement": "Index of protection, %", "setting": "[2]; [4]", "value": 14.0, "unit": "%"}, {"measurement": "Mortality rate, %", "setting": "[2]; [4]", "value": 36.8, "unit": "%"}, {"measurement": "Number of survivors", "setting": "[2]; [4]", "value": 12}, {"measurement": "Average lifetime (LD)", "setting": "[2]; Tamiflu 20 mg/kg, […], n=9", "value": 13.4, "unit": "days"}, {"measurement": "Increase in LD", "setting": "[2]; Tamiflu 20 mg/kg, […], n=9", "value": 0.3, "unit": "days"}, {"measurement": "Index of protection, %", "setting": "[2]; Tamiflu 20 mg/kg, […], n=9", "value": 18.5, "unit": "%"}, {"measurement": "Mortality rate, %", "setting": "[2]; Tamiflu 20 mg/kg, […], n=9", "value": 22.2, "unit": "%"}, {"measurement": "Number of survivors", "setting": "[2]; Tamiflu 20 mg/kg, […], n=9", "value": 7}, {"measurement": "Average lifetime (LD)", "setting": "[2]; Tamiflu 20 mg/kg, […], n=10", "value": 11.7, "unit": "days"}, {"measurement": "Increase in LD", "setting": "[2]; Tamiflu 20 mg/kg, […], n=10", "value": 0.3, "unit": "days"}, {"measurement": "Index of protection, %", "setting": "[2]; Tamiflu 20 mg/kg, […], n=10", "value": 16.7, "unit": "%"}, {"measurement": "Mortality rate, %", "setting": "[2]; Tamiflu 20 mg/kg, […], n=10", "value": 50.0, "unit": "%"}, {"measurement": "Number of survivors", "setting": "[2]; Tamiflu 20 mg/kg, […], n=10", "value": 5}, {"measurement": "Size of chronic post-influenza pneumonia sites (% of the total surface area of the lungs)", "setting": "[2]; Tamiflu 20 mg/kg", "value": "15 ± 5", "unit": "%"}]}, {"compound": "N-fullerene tris(δ-aminocaproic acid) hydrate [Agent 1]", "values": [{"measurement": "Average lifetime (LD)", "setting": "[1]; 30 mg/kg, Summary dose, n=29", "value": 11.8, "unit": "days"}, {"measurement": "Increase in LD", "setting": "[1]; 30 mg/kg, Summary dose, n=29", "value": 1.4, "unit": "days"}, {"measurement": "Mortality rate, %", "setting": "[1]; 30 mg/kg, Summary dose, n=29", "value": 55.2, "unit": "%"}, {"measurement": "Number of survivors", "setting": "[1]; 30 mg/kg, Summary dose, n=29", "value": 13}, {"measurement": "Average lifetime (LD)", "setting": "[1]; 30 mg/kg, […], n=14", "value": 13.3, "unit": "days"}, {"measurement": "Increase in LD", "setting": "[1]; 30 mg/kg, […], n=14", "value": 1.0, "unit": "days"}, {"measurement": "Mortality rate, %", "setting": "[1]; 30 mg/kg, […], n=14", "value": 35.7, "unit": "%"}, {"measurement": "Number of survivors", "setting": "[1]; 30 mg/kg, […], n=14", "value": 9}, {"measurement": "Average lifetime (LD)", "setting": "[1]; 30 mg/kg, […], n=15", "value": 10.4, "unit": "days"}, {"measurement": "Increase in LD", "setting": "[1]; 30 mg/kg, […], n=15", "value": 2.3, "unit": "days"}, {"measurement": "Mortality rate, %", "setting": "[1]; 30 mg/kg, […], n=15", "value": 73.3, "unit": "%"}, {"measurement": "Number of survivors", "setting": "[1]; 30 mg/kg, […], n=15", "value": 4}, {"measurement": "Average lifetime (LD)", "setting": "[1]; 100 mg/kg, Summary dose, n=30", "value": 12.6, "unit": "days"}, {"measurement": "Increase in LD", "setting": "[1]; 100 mg/kg, Summary dose, n=30", "value": 2.2, "unit": "days"}, {"measurement": "Mortality rate, %", "setting": "[1]; 100 mg/kg, Summary dose, n=30", "value": 40.0, "unit": "%"}, {"measurement": "Number of survivors", "setting": "[1]; 100 mg/kg, Summary dose, n=30", "value": 18}, {"measurement": "Average lifetime (LD)", "setting": "[1]; 300 mg/kg, Summary dose, n=29", "value": 12.5, "unit": "days"}, {"measurement": "Increase in LD", "setting": "[1]; 300 mg/kg, Summary dose, n=29", "value": 2.2, "unit": "days"}, {"measurement": "Mortality rate, %", "setting": "[1]; 300 mg/kg, Summary dose, n=29", "value": 31.0, "unit": "%"}, {"measurement": "Number of survivors", "setting": "[1]; 300 mg/kg, Summary dose, n=29", "value": 20}, {"measurement": "Average lifetime (LD)", "setting": "[1]; 300 mg/kg, […], n=14", "value": 11.3, "unit": "days"}, {"measurement": "Increase in LD", "setting": "[1]; 300 mg/kg, […], n=14", "value": 3.2, "unit": "days"}, {"measurement": "Mortality rate, %", "setting": "[1]; 300 mg/kg, […], n=14", "value": 42.9, "unit": "%"}, {"measurement": "Number of survivors", "setting": "[1]; 300 mg/kg, […], n=14", "value": 8}, {"measurement": "Average lifetime (LD)", "setting": "[1]; 300 mg/kg, […], n=15", "value": 13.7, "unit": "days"}, {"measurement": "Increase in LD", "setting": "[1]; 300 mg/kg, […], n=15", "value": 1.3, "unit": "days"}, {"measurement": "Mortality rate, %", "setting": "[1]; 300 mg/kg, […], n=15", "value": 20.0, "unit": "%"}, {"measurement": "Number of survivors", "setting": "[1]; 300 mg/kg, […], n=15", "value": 12}, {"measurement": "Size of chronic post-influenza pneumonia sites (% of the total surface area of the lungs)", "setting": "[1]; 300 mg/kg", "value": "13 ± 3", "unit": "%"}, {"measurement": "Average lifetime (LD)", "setting": "[2]; 30 mg/kg, Summary dose, n=25", "value": 13.7, "unit": "days"}, {"measurement": "Increase in LD", "setting": "[2]; 30 mg/kg, Summary dose, n=25", "value": 1.4, "unit": "days"}, {"measurement": "Mortality rate, %", "setting": "[2]; 30 mg/kg, Summary dose, n=25", "value": 28.0, "unit": "%"}, {"measurement": "Number of survivors", "setting": "[2]; 30 mg/kg, Summary dose, n=25", "value": 18}, {"measurement": "Average lifetime (LD)", "setting": "[2]; 30 mg/kg, […], n=12", "value": 13.2, "unit": "days"}, {"measurement": "Increase in LD", "setting": "[2]; 30 mg/kg, […], n=12", "value": 1.8, "unit": "days"}, {"measurement": "Mortality rate, %", "setting": "[2]; 30 mg/kg, […], n=12", "value": 41.7, "unit": "%"}, {"measurement": "Number of survivors", "setting": "[2]; 30 mg/kg, […], n=12", "value": 7}, {"measurement": "Average lifetime (LD)", "setting": "[2]; 30 mg/kg, […], n=13", "value": 14.2, "unit": "days"}, {"measurement": "Increase in LD", "setting": "[2]; 30 mg/kg, […], n=13", "value": 1.0, "unit": "days"}, {"measurement": "Mortality rate, %", "setting": "[2]; 30 mg/kg, […], n=13", "value": 15.4, "unit": "%"}, {"measurement": "Number of survivors", "setting": "[2]; 30 mg/kg, […], n=13", "value": 11}, {"measurement": "Average lifetime (LD)", "setting": "[2]; 100 mg/kg, Summary dose, n=22", "value": 13.6, "unit": "days"}, {"measurement": "Increase in LD", "setting": "[2]; 100 mg/kg, Summary dose, n=22", "value": 1.3, "unit": "days"}, {"measurement": "Mortality rate, %", "setting": "[2]; 100 mg/kg, Summary dose, n=22", "value": 27.3, "unit": "%"}, {"measurement": "Number of survivors", "setting": "[2]; 100 mg/kg, Summary dose, n=22", "value": 16}, {"measurement": "Average lifetime (LD)", "setting": "[2]; 100 mg/kg, […], n=10", "value": 14.0, "unit": "days"}, {"measurement": "Increase in LD", "setting": "[2]; 100 mg/kg, […], n=10", "value": 0.8, "unit": "days"}, {"measurement": "Mortality rate, %", "setting": "[2]; 100 mg/kg, […], n=10", "value": 20.0, "unit": "%"}, {"measurement": "Number of survivors", "setting": "[2]; 100 mg/kg, […], n=10", "value": 8}, {"measurement": "Average lifetime (LD)", "setting": "[2]; 100 mg/kg, […], n=12", "value": 13.3, "unit": "days"}, {"measurement": "Increase in LD", "setting": "[2]; 100 mg/kg, […], n=12", "value": 1.9, "unit": "days"}, {"measurement": "Mortality rate, %", "setting": "[2]; 100 mg/kg, […], n=12", "value": 33.3, "unit": "%"}, {"measurement": "Number of survivors", "setting": "[2]; 100 mg/kg, […], n=12", "value": 8}, {"measurement": "Average lifetime (LD)", "setting": "[2]; 300 mg/kg, Summary dose, n=26", "value": 14.2, "unit": "days"}, {"measurement": "Increase in LD", "setting": "[2]; 300 mg/kg, Summary dose, n=26", "value": 1.8, "unit": "days"}, {"measurement": "Mortality rate, %", "setting": "[2]; 300 mg/kg, Summary dose, n=26", "value": 15.4, "unit": "%"}, {"measurement": "Number of survivors", "setting": "[2]; 300 mg/kg, Summary dose, n=26", "value": 22}, {"measurement": "Size of chronic post-influenza pneumonia sites (% of the total surface area of the lungs)", "setting": "[2]; 300 mg/kg", "value": "7 ± 2", "unit": "%"}]}]}
